Test results published in patent US10189828B2, “1-methylpyrazole-piperazine compounds having multimodal activity against pain” (LABORATORIOS DEL DR. ESTEVE S.A., priority 2014, dated 2019).
pKi: −log10 of the molar value. Where two headings read alike, the source gives them in different places.

System: human σ1 receptor and human μ-opioid receptor
Experiment: μ and σ1 dual binding: human σ1 receptor radioligand assay ([3H](+)-pentazocine, transfected HEK-293 membranes) and human μ-opioid receptor radioligand assay ([3H]-DAMGO, transfected CHO-K1 membranes)
Design: key to μ and σ1 dual binding: +: Both Ki-μ and Ki-σ1>=500 nM; ++: One Ki<500 nM while the other Ki is >=500 nM; +++: Both Ki-μ and Ki-σ1<500 nM; ++++: Both Ki-μ and Ki-σ1<100 nM
[1] = one combined class for Ki-μ and Ki-σ1

Cn1nccc1C(c1ccccc1)N1CCN(CCc2ccccn2)CC1 (stereo not drawn) [Example 1, 1-((1-Methyl-1H-pyrazol-5-yl)(phenyl)methyl)-4-(2-(pyridin-2-yl)ethyl)piperazine]
μ and σ1 dual binding: ++

Cn1nccc1C(c1ccccc1)N1CCN(Cc2ccccc2)CC1 (stereo not drawn) [Example 2, 1-benzyl-4-((1-methyl-1H-pyrazol-5-yl)(phenyl)methyl)piperazine]
μ and σ1 dual binding: ++

Cn1nccc1C(c1ccccc1)N1CCN(CCc2ccccc2)CC1 (stereo not drawn) [Example 3, 1-((1-methyl-1H-pyrazol-5-yl)(phenyl)methyl)-4-phenethylpiperazine]
pKi: > 7.00

Cn1nccc1C(c1ccccn1)N1CCN(CCc2ccccc2)CC1 (stereo not drawn) [Example 4, 1-((1-methyl-1H-pyrazol-5-yl)(pyridin-2-yl)methyl)-4-phenethylpiperazine]
μ and σ1 dual binding: ++

Cn1nccc1C(c1cccnc1)N1CCN(CCc2ccccc2)CC1 (stereo not drawn) [Example 5, 1-((1-methyl-1H-pyrazol-5-yl)(pyridin-3-yl)methyl)-4-phenethylpiperazine]
μ and σ1 dual binding: ++

COc1ccccc1CCN1CCN(C(c2ccccc2)c2ccnn2C)CC1 (stereo not drawn) [Example 6, 1-(2-methoxyphenethyl)-4-((1-methyl-1H-pyrazol-5-yl)(phenyl)methyl)piperazine]
pKi [1]: ≤ 6.30

COc1cccc(C(c2ccnn2C)N2CCN(CCc3ccccc3)CC2)c1 (stereo not drawn) [Example 7, 1-((3-methoxyphenyl)(1-methyl-1H-pyrazol-5-yl)methyl)-4-phenethylpiperazine]
pKi: > 7.00

COc1ccccc1C(c1ccnn1C)N1CCN(CCc2ccccc2)CC1 (stereo not drawn) [Example 8, 1-((2-methoxyphenyl)(1-methyl-1H-pyrazol-5-yl)methyl)-4-phenethylpiperazine]
pKi: > 6.30

COc1ccc(C(c2ccnn2C)N2CCN(CCc3ccccc3)CC2)cc1 (stereo not drawn) [Example 9, 1-((4-methoxyphenyl)(1-methyl-1H-pyrazol-5-yl)methyl)-4-phenethylpiperazine]
pKi: > 6.30

Cn1nccc1C(c1cccc(C(F)(F)F)n1)N1CCN(CCc2ccccc2)CC1 (stereo not drawn) [Example 10, 1-((1-methyl-1H-pyrazol-5-yl)(6-(trifluoromethyl)pyridin-2-yl)methyl)-4-phenethylpiperazine]
μ and σ1 dual binding: ++

Cn1nccc1C(c1ccc(C(F)(F)F)nc1)N1CCN(CCc2ccccc2)CC1 (stereo not drawn) [Example 11, 1-((1-methyl-1H-pyrazol-5-yl)(6-(trifluoromethyl)pyridin-3-yl)methyl)-4-phenethylpiperazine]
μ and σ1 dual binding: ++

Cn1nccc1C(c1ccc(F)cn1)N1CCN(CCc2ccccc2)CC1 (stereo not drawn) [Example 12, 1-((5-fluoropyridin-2-yl)(1-methyl-1H-pyrazol-5-yl)methyl)-4-phenethylpiperazine]
pKi: > 6.30

Cn1nccc1C(c1cncc(F)c1)N1CCN(CCc2ccccc2)CC1 (stereo not drawn) [Example 13, 1-((5-fluoropyridin-3-yl)(1-methyl-1H-pyrazol-5-yl)methyl)-4-phenethylpiperazine]
μ and σ1 dual binding: ++

Cn1nccc1C(c1ccc(C(F)(F)F)cn1)N1CCN(CCc2ccccc2)CC1 (stereo not drawn) [Example 14, 1-((1-methyl-1H-pyrazol-5-yl)(5-(trifluoromethyl)pyridin-2-yl)methyl)-4-phenethylpiperazine]
μ and σ1 dual binding: ++

Cn1nccc1C(c1ccc(F)cn1)N1CCN(CCc2ccccn2)CC1 (stereo not drawn) [Example 15, 1-((5-fluoropyridin-2-yl)(1-methyl-1H-pyrazol-5-yl)methyl)-4-(2-(pyridin-2-yl)ethyl)piperazine]
pKi [1]: ≤ 6.30

Cn1nccc1C(c1ncccc1F)N1CCN(CCc2ccccc2)CC1 (stereo not drawn) [Example 16, 1-((3-fluoropyridin-2-yl)(1-methyl-1H-pyrazol-5-yl)methyl)-4-phenethylpiperazine]
μ and σ1 dual binding: ++

Cn1nccc1C(c1cccnc1C(F)(F)F)N1CCN(CCc2ccccc2)CC1 (stereo not drawn) [Example 17, 1-((1-methyl-1H-pyrazol-5-yl)(2-(trifluoromethyl)pyridin-3-yl)methyl)-4-phenethylpiperazine]
pKi: > 6.30

Cn1nccc1C(c1ccc(Cl)cn1)N1CCN(CCc2ccccc2)CC1 (stereo not drawn) [Example 18, 1-((5-chloropyridin-2-yl)(1-methyl-1H-pyrazol-5-yl)methyl)-4-phenethylpiperazine]
μ and σ1 dual binding: ++

Cn1nccc1C(c1cnccc1C(F)(F)F)N1CCN(CCc2ccccc2)CC1 (stereo not drawn) [Example 19, 1-((1-methyl-1H-pyrazol-5-yl)(4-(trifluoromethyl)pyridin-3-yl)methyl)-4-phenethylpiperazine]
μ and σ1 dual binding: ++

Cn1nccc1C(c1ccncc1)N1CCN(CCc2ccccc2)CC1 (stereo not drawn) [Example 20, 1-((1-methyl-1H-pyrazol-5-yl)(pyridin-4-yl)methyl)-4-phenethylpiperazine]
μ and σ1 dual binding: ++

COc1cccc(CCN2CCN(C(c3ccccc3)c3ccnn3C)CC2)c1 (stereo not drawn) [Example 21, 1-(3-Methoxyphenethyl)-4-((1-methyl-1H-pyrazol-5-yl)(phenyl)methyl)piperazine]
pKi: > 6.30

Cn1nccc1C(c1ccccc1)N1CCN(CCc2ccccc2F)CC1 (stereo not drawn) [Example 22, 1-(2-fluorophenethyl)-4-((1-methyl-1H-pyrazol-5-yl)(phenyl)methyl)piperazine]
pKi: > 7.00

Cn1nccc1C(c1ccccc1)N1CCN(CCc2ccc(F)cc2)CC1 (stereo not drawn) [Example 23, 1-(4-fluorophenethyl)-4-((1-methyl-1H-pyrazol-5-yl)(phenyl)methyl)piperazine]
μ and σ1 dual binding: ++

Cn1nccc1C(c1ccccc1)N1CCN(CCc2ccc(C(F)(F)F)nc2)CC1 (stereo not drawn) [Example 24, 1-((1-methyl-1H-pyrazol-5-yl)(phenyl)methyl)-4-(2-(6-(trifluoromethyl)pyridin-3-yl)ethyl)piperazine]
pKi [1]: ≤ 6.30

Cn1nccc1C(c1ccccc1)N1CCN(CCc2csc(NC(=O)OC(C)(C)C)n2)CC1 (stereo not drawn) [Example 25, tert-butyl 4-(2-(4-((1-methyl-1H-pyrazol-5-yl)(phenyl)methyl)piperazin-1-yl)ethyl)thiazol-2-ylcarbamate]
pKi [1]: ≤ 6.30

Cn1nccc1C(c1ccc(F)cn1)N1CCN(CCc2ccccc2F)CC1 (stereo not drawn) [Example 26, 1-(2-fluorophenethyl)-4-((5-fluoropyridin-2-yl)(1-methyl-1H-pyrazol-5-yl)methyl)piperazine]
μ and σ1 dual binding: ++

COc1cccc(CCN2CCN(C(c3ccc(F)cn3)c3ccnn3C)CC2)c1 (stereo not drawn) [Example 27, 1-((5-fluoropyridin-2-yl)(1-methyl-1H-pyrazol-5-yl)methyl)-4-(3-methoxyphenethyl)piperazine]
μ and σ1 dual binding: ++

Cn1nccc1C(c1ccccc1)N1CCN(CCc2ccccc2O)CC1 (stereo not drawn) [Example 28, 2-(2-(4-((1-Methyl-1H-pyrazol-5-yl)(phenyl)methyl)piperazin-1-yl)ethyl)phenol]
μ and σ1 dual binding: ++

Cn1nccc1C(c1cccc(O)c1)N1CCN(CCc2ccccc2)CC1 (stereo not drawn) [Example 29, 3-((1-methyl-1H-pyrazol-5-yl)(4-phenethylpiperazin-1-yl)methyl)phenol]
pKi: > 6.30

Cn1nccc1C(c1ccccc1)N1CCN(CCc2cccc(O)c2)CC1 (stereo not drawn) [Example 30, 3-(2-(4-((1-methyl-1H-pyrazol-5-yl)(phenyl)methyl)piperazin-1-yl)ethyl)phenol]
pKi: > 7.00

Cn1nccc1C(c1ccc(F)cn1)N1CCN(CCc2cccc(O)c2)CC1 (stereo not drawn) [Example 31, 3-(2-(4-((5-fluoropyridin-2-yl)(1-methyl-1H-pyrazol-5-yl)methyl)piperazin-1-yl)ethyl)phenol]
μ and σ1 dual binding: ++

Cn1nccc1C(c1ccccc1)N1CCN(CCc2csc(N)n2)CC1 (stereo not drawn) [Example 32, 4-(2-(4-((1-Methyl-1H-pyrazol-5-yl)(phenyl)methyl)piperazin-1-yl)ethyl)thiazol-2-amine]
pKi [1]: ≤ 6.30

Cn1nccc1C(c1ccccc1)N1CCN(CCc2ncccc2F)CC1 (stereo not drawn) [Example 33, 1-(2-(3-Fluoropyridin-2-yl)ethyl)-4-((1-methyl-1H-pyrazol-5-yl)(phenyl)methyl)piperazine]
pKi [1]: ≤ 6.30

Cn1nccc1C(c1ccccc1)N1CCN(CCc2ccc(F)cn2)CC1 (stereo not drawn) [Example 34, 1-(2-(5-fluoropyridin-2-yl)ethyl)-4-((1-methyl-1H-pyrazol-5-yl)(phenyl)methyl)piperazine]
pKi [1]: ≤ 6.30

Cn1nccc1C(c1ccccc1)N1CCN(CCc2cccc(F)c2)CC1 (stereo not drawn) [Example 35, 1-(3-Fluorophenethyl)-4-((1-methyl-1H-pyrazol-5-yl)(phenyl)methyl)piperazine]
pKi: > 6.30

Cn1nccc1C(c1ccccc1)N1CCN(CCc2cccnc2)CC1 (stereo not drawn) [Example 36, 1-((1-methyl-1H-pyrazol-5-yl)(phenyl)methyl)-4-(2-(pyridin-3-yl)ethyl)piperazine]
pKi [1]: ≤ 6.30

Cn1nccc1C(c1ccccc1)N1CCN(CCc2ccncc2)CC1 (stereo not drawn) [Example 37, 1-((1-methyl-1H-pyrazol-5-yl)(phenyl)methyl)-4-(2-(pyridin-4-yl)ethyl)piperazine]
μ and σ1 dual binding: ++

Cn1nccc1C(c1ccc(F)cn1)N1CCN(CCc2cccc(F)c2)CC1 (stereo not drawn) [Example 38, 1-(3-fluorophenethyl)-4-((5-fluoropyridin-2-yl)(1-methyl-1H-pyrazol-5-yl)methyl)piperazine]
pKi: > 6.30

Cn1nccc1C(c1ccccc1)N1CCN(CC(O)c2ccccc2)CC1 (stereo not drawn) [Example 39, 2-(4-((1-Methyl-1H-pyrazol-5-yl)(phenyl)methyl)piperazin-1-yl)-1-phenylethanol]
μ and σ1 dual binding: ++

Cn1nccc1C(c1ccccc1)N1CCN(CCc2cccc(N)n2)CC1 (stereo not drawn) [Example 40, 6-(2-(4-((1-Methyl-1H-pyrazol-5-yl)(phenyl)methyl)piperazin-1-yl)ethyl)pyridin-2-amine]
pKi [1]: ≤ 6.30

Cn1nccc1C(c1ccccc1)N1CCN(CCc2ncccc2Cl)CC1 (stereo not drawn) [Example 41, 1-(2-(3-chloropyridin-2-yl)ethyl)-4-((1-methyl-1H-pyrazol-5-yl)(phenyl)methyl)piperazine]
μ and σ1 dual binding: ++

Cn1nccc1C(c1ccccc1)N1CCN(CCc2cccc(C(F)(F)F)n2)CC1 (stereo not drawn) [Example 42, 1-((1-methyl-1H-pyrazol-5-yl)(phenyl)methyl)-4-(2-(6-(trifluoromethyl)pyridin-2-yl)ethyl)piperazine]
pKi [1]: ≤ 6.30
